Data from paper PMC12505902, “Inhibitors of trehalose-6-phosphate synthase activity in fungal pathogens compromise thermal tolerance pathways” (mBio, 2025).

Tested on: C. neoformans WT H99
Assay: C. neoformans capsule assay (India Ink)
Format: cell-based
Conditions: 0.1, 0.5 and 1 mM 4456dh, 72 hours at 30°C, dose-dependent
Protocol: Fig 5 4456dh treatment results in reduced trehalose accumulation and a decrease in Tps1-dependent virulence factors. Trehalose accumulation measurements for C. albicans (A) and C. neoformans (B) cultured at indicated temperatures in the absence or presence of 0.5 mM 4456dh. Trehalose was measured using a colorimetric glucose assay after treatment of cultures with trehalase. Statistical comparisons were done with a one-way analysis of variance (ANOVA) analysis followed by a post hoc Tukey’s test. Error bars represent SE. (C) C. albicans WT strain SC5314 cells were treated with 0.5 mM, 1.0 mM, and 5 mM 4456dh. Untreated C. albicans WT cells and the C. albicans tps1Δ/tps1Δ deletion strain were included in this experiment as positive and negative controls, respectively. Increasing concentrations of 4456dh negatively affect filamentation in C. albicans in YPD plus 10% fetal bovine serum incubated at 37°C for 2 hours. Representative images from two independent experiments are shown. The scale bars represent 10 microns. (D) Analysis of capsule formation in C. neoformans WT H99 using India Ink counter-staining in cells treated with 0.1 mM, 0.5 mM, and 1 mM 4456dh. […] Cells were harvested, stained in India Ink, and analyzed using differential interference contrast imaging. […]
190 (Zeiss). The size of the capsule of > 100 cells per 4456dh treatment was quantified using Image […]

With `Cn1cc(-c2csc(NC(=O)Cc3ccccn3)n2)cn1` [Compound 4456dh] as the compound, how does the capsule production read?
Its capsule production is “capsule production was affected”.
